The source of these data is patent US9169254B2, “Spiroimidazolone derivative” (Chugai Seiyaku Kabushiki Kaisha, priority 2009, dated 2015).

Structures can show the parent of a compound that is named as a salt.

The target in one assay is T1, human PTH1 receptor (Homo sapiens, UniProt Q03431).
T1 sequence (Q03431 27-593): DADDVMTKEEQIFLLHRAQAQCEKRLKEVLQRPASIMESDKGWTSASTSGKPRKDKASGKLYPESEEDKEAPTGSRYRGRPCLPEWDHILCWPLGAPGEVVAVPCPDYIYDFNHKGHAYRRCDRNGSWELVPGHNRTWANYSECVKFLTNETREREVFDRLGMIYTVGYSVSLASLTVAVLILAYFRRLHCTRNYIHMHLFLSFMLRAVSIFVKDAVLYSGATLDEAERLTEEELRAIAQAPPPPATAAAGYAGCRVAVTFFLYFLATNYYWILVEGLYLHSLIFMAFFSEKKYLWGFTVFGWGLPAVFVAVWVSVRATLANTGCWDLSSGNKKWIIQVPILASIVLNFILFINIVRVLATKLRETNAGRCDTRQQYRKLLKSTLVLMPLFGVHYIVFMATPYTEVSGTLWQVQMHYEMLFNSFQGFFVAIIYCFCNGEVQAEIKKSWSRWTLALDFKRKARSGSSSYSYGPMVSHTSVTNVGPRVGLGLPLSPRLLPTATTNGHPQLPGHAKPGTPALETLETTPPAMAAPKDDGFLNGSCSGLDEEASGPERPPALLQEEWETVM
Briefly: In vitro cAMP signal activity in HKRK-B7 cells (LLC-PK1 cells overexpressing the human PTH1 receptor). The note with it: HKRK-B7 cells; compound at 1×10^−3 M; […]; 0.1 µM. The class given is cell-based.
`Cc1cc(C(=O)N2CCNCC2)cc(C)c1/C=C/S(=O)(=O)N1CCC2(CC1)N=C(c1cccc(OC(F)(F)F)c1)NC2=O` [Compound 446, 8-{(E)-2-[2,6-dimethyl-4-(piperazine-1-carbonyl)-phenyl]-ethenesulfonyl}-2-(3-trifluoromethoxy-phenyl)-1,3,8-triaza-spiro[4.5]dec-1-en-4-one hydrochloride]: the “cAMP production activity (%)” value was determined as 49%. For `Cc1cc(N(C)C(=O)NCCN(C)C)ccc1/C=C/S(=O)(=O)N1CCC2(CC1)N=C(c1cccc(OC(F)(F)F)c1)NC2=O` [Compound 457, 3-(2-Dimethylamino-ethyl)-1-methyl-1-(3-methyl-4-{(E)-2-[4-oxo-2-(3-trifluoromethoxy-phenyl)-1,3,8-triaza-spiro[4.5]dec-1-ene-8-sulfonyl]-vinyl}-phenyl)-urea], the “cAMP production activity (%)” value was 25%. On the same count and under the same terms, in the case of `CNC(=O)Nc1cccc(CCS(=O)(=O)N2CCC3(CC2)N=C(C2CCCCC2)NC3=O)c1C` [Compound 459, 1-{3-[2-(2-Cyclohexyl-4-oxo-1,3,8-triaza-spiro[4.5]dec-1-ene-8-sulfonyl)-ethyl]-2-methyl-phenyl}-3-methyl-urea] it was 55%; in that of `COCCOC(=O)N1CCCC(C2=NC3(CCN(S(=O)(=O)c4cccc(Cl)c4)CC3)C(=O)N2)C1` (centres unmarked) [Compound 460, 3-[8-(3-Chloro-benzenesulfonyl)-4-oxo-1,3,8-triaza-spiro[4.5]dec-1-en-2-yl]-piperidine-1-carboxylic acid 2-methoxy-ethyl ester], 18%.

Staying with this assay, now noted: HKRK-B7 cells; compound at 1×10^−3 M; cAMP produced as percentage of that produced by hPTH(1-34) at 100 nM.
Regarding `CC(C)(C)OCC(=O)N1CCCC(C2=NC3(CCN(S(=O)(=O)CCc4cccc5ccccc45)CC3)C(=O)N2)C1` (centres unmarked) [Compound 439, 2-[1-(2-tert-butoxy-acetyl)-piperidin-3-yl]-8-(2-naphthalen-1-yl-ethanesulfonyl)-1,3,8-triaza-spiro[4.5]dec-1-en-4-one], the “cAMP production activity (%)” value turned out to be 33%. Consider `O=C(/C=C/c1ccccc1)N1CCCC(C2=NC3(CCN(S(=O)(=O)CCc4cccc5ccccc45)CC3)C(=O)N2)C1` (centres unmarked) [Compound 441, 8-(2-Naphthalen-1-yl-ethanesulfonyl)-2-{1-[(E)-(3-phenyl-acryloyl)]-piperidin-3-yl}-1,3,8-triaza-spiro[4.5]dec-1-en-4-one], for which the “cAMP production activity (%)” value came out at 24%. On to `NCC(=O)N1CCCC(C2=NC3(CCN(S(=O)(=O)c4cccc(Cl)c4)CC3)C(=O)N2)C1` (centres unmarked) [Compound 442, 2-[1-(2-Amino-acetyl)-piperidin-3-yl]-8-(3-chloro-benzenesulfonyl)-1,3,8-triaza-spiro[4.5]dec-1-en-4-one], for which the “cAMP production activity (%)” value amounted to 2.5%. In the case of `CNC1CCN(C(=O)c2ccc(CCS(=O)(=O)N3CCC4(CC3)N=C(c3cccc(C(F)(F)F)c3)NC4=O)c(C)c2)C1` (centres unmarked) [Compound 444, 8-{2-[2-Methyl-4-(3-methylamino-pyrrolidine-1-carbonyl)-phenyl]-ethanesulfonyl}-2-(3-trifluoromethyl-phenyl)-1,3,8-triaza-spiro[4.5]dec-1-en-4-one], the “cAMP production activity (%)” value stood at 46%.

Regarding `Cc1cc(C(=O)N2CCC(N)C2)ccc1CCS(=O)(=O)N1CCC2(CC1)N=C(c1cccc(C(F)(F)F)c1)NC2=O` (centres unmarked) [Compound 445, 8-{2-[4-(3-amino-pyrrolidine-1-carbonyl)-2-methyl-phenyl]-ethanesulfonyl}-2-(3-trifluoromethyl-phenyl)-1,3,8-triaza-spiro[4.5]dec-1-en-4-one hydrochloride], the “cAMP production activity (%)” value was 83%.

On to `Cc1cc(C(=O)N2CCN(C(=O)CO)CC2)cc(C)c1/C=C/S(=O)(=O)N1CCC2(CC1)N=C(c1cccc(OC(F)(F)F)c1)NC2=O` [Compound 447, 8-((E)-2-{4-[4-(2-Hydroxy-acetyl)-piperazine-1-carbonyl]-2,6-dimethyl-phenyl}-ethenesulfonyl)-2-(3-trifluoromethoxy-phenyl)-1,3,8-triaza-spiro[4.5]dec-1-en-4-one], for which the “cAMP production activity (%)” value is recorded as 89%. `COC(=O)CCC(=O)N1CCN(C(=O)c2cc(C)c(/C=C/S(=O)(=O)N3CCC4(CC3)N=C(c3cccc(OC(F)(F)F)c3)NC4=O)c(C)c2)CC1` [Compound 448, 4-[4-(3,5-dimethyl-4-{(E)-2-[4-oxo-2-(3-trifluoromethoxy-phenyl)-1,3,8-triaza-spiro[4.5]dec-1-ene-8-sulfonyl]-vinyl}-benzoyl)-piperazin-1-yl]-4-oxo-butyric acid methyl ester]: the “cAMP production activity (%)” value turned out to be 64%. The same measure, in the same setting: then `Cc1cc(C(=O)N2CCN(C(=O)CCCN(C)C)CC2)cc(C)c1/C=C/S(=O)(=O)N1CCC2(CC1)N=C(c1cccc(OC(F)(F)F)c1)NC2=O` [Compound 449, 8-((E)-2-{4-[4-(4-dimethylamino-butyryl)-piperazine-1-carbonyl]-2,6-dimethyl-phenyl}-ethenesulfonyl)-2-(3-trifluoromethoxy-phenyl)-1,3,8-triaza-spiro[4.5]dec-1-en-4-one], with 94%. The same measure, in the same setting: in the case of `COCC(=O)N(C)c1ccc(/C=C/S(=O)(=O)N2CCC3(CC2)N=C(c2cccc(OC(F)(F)F)c2)NC3=O)c(C)c1` [Compound 450, 2-Methoxy-N-methyl-N-(3-methyl-4-{(E)-2-[4-oxo-2-(3-trifluoromethoxy-phenyl)-1,3,8-triaza-spiro[4.5]dec-1-ene-8-sulfonyl]-vinyl}-phenyl)-acetamide] it was 56%.

Consider `Cc1cc(N(C)C(=O)CO)ccc1/C=C/S(=O)(=O)N1CCC2(CC1)N=C(c1cccc(OC(F)(F)F)c1)NC2=O` [Compound 451, 2-Hydroxy-N-methyl-N-(3-methyl-4-{(E)-2-[4-oxo-2-(3-trifluoromethoxy-phenyl)-1,3,8-triaza-spiro[4.5]dec-1-ene-8-sulfonyl]-vinyl}-phenyl)-acetamide], for which the “cAMP production activity (%)” value is reported as 96%.

In the case of `Cc1cc(C(=O)N(C)CC(=O)O)cc(C)c1/C=C/S(=O)(=O)N1CCC2(CC1)N=C(c1cccc(C(F)(F)F)c1)NC2=O` [Compound 452, [(3,5-Dimethyl-4-{(E)-2-[4-oxo-2-(3-trifluoromethyl-phenyl)-1,3,8-triaza-spiro[4.5]dec-1-ene-8-sulfonyl]-vinyl}-benzoyl)-methyl-amino]-acetic acid], the “cAMP production activity (%)” value is 58%. In the case of `CC(C)(C)CCN1CCCC(C2=NC3(CCN(S(=O)(=O)c4cccc(Cl)c4)CC3)C(=O)N2)C1` (centres unmarked) [Compound 453, 8-(3-Chloro-benzenesulfonyl)-2-[1-(3,3-dimethyl-butyl)-piperidin-3-yl]-1,3,8-triaza-spiro[4.5]dec-1-en-4-one], the “cAMP production activity (%)” value came to 16%. Same read-out and setting: in the case of `CC(C)(C)NC(=O)N1CCCC(C2=NC3(CCN(S(=O)(=O)c4cccc(Cl)c4)CC3)C(=O)N2)C1` (centres unmarked) [Compound 454, 3-[8-(3-Chloro-benzenesulfonyl)-4-oxo-1,3,8-triaza-spiro[4.5]dec-1-en-2-yl]-piperidine-1-carboxylic acid tert-butylamide] it was 19%. Consider `O=C(NCCc1ccccc1)N1CCCC(C2=NC3(CCN(S(=O)(=O)CCc4cccc5ccccc45)CC3)C(=O)N2)C1` (centres unmarked) [Compound 455, 3-[8-(2-naphthalen-1-yl-ethanesulfonyl)-4-oxo-1,3,8-triaza-spiro[4.5]dec-1-en-2-yl]-piperidine-1-carboxylic acid phenethyl-amide], for which the “cAMP production activity (%)” value was 31%.

Consider `O=C(N1CCCCC1)N1CCCC(C2=NC3(CCN(S(=O)(=O)c4cccc(Cl)c4)CC3)C(=O)N2)C1` (centres unmarked) [Compound 456, 8-(3-Chloro-benzenesulfonyl)-2-[1-(piperidine-1-carbonyl)-piperidin-3-yl]-1,3,8-triaza-spiro[4.5]dec-1-en-4-one], for which the “cAMP production activity (%)” value came out at 28%. Regarding `Cc1cc(N(C)C(N)=O)ccc1/C=C/S(=O)(=O)N1CCC2(CC1)N=C(c1cccc(OC(F)(F)F)c1)NC2=O` [Compound 458, 1-methyl-1-(3-methyl-4-{(E)-2-[4-oxo-2-(3-trifluoromethoxy-phenyl)-1,3,8-triaza-spiro[4.5]dec-1-ene-8-sulfonyl]-vinyl}-phenyl)-urea], the “cAMP production activity (%)” value amounted to 77%. On the same count and under the same terms, then `O=C(OCc1ccccc1)N1CCCC(C2=NC3(CCN(S(=O)(=O)c4cccc(Cl)c4)CC3)C(=O)N2)C1` (centres unmarked) [Compound 461, 3-[8-(3-chloro-benzenesulfonyl)-4-oxo-1,3,8-triaza-spiro[4.5]dec-1-en-2-yl]-piperidine-1-carboxylic acid benzyl ester], with 51%; and `CC(C)COC(=O)N1CCCC(C2=NC3(CCN(S(=O)(=O)c4cccc(Cl)c4)CC3)C(=O)N2)C1` (centres unmarked) [Compound 462, 3-[8-(3-chloro-benzenesulfonyl)-4-oxo-1,3,8-triaza-spiro[4.5]dec-1-en-2-yl]-piperidine-1-carboxylic acid isobutyl ester], with 47%. For the compound `COC(=O)N1CCCC(C2=NC3(CCN(S(=O)(=O)c4cccc(Cl)c4)CC3)C(=O)N2)C1` (centres unmarked) [Compound 463, 3-[8-(3-chloro-benzenesulfonyl)-4-oxo-1,3,8-triaza-spiro[4.5]dec-1-en-2-yl]-piperidine-1-carboxylic acid methyl ester], the “cAMP production activity (%)” value worked out at 28%.
